From PubChem BioAssay AID493059 (The Scripps Research Institute Molecular Screening Center, 2011)
The source made the active and inactive calls.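 Rule for the calls: active = share of cells pushed into apoptosis exceeding a set limit, after 48 hr at 25 µM; inactive = the rest.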

The molecules below were run on 2B4 cells apoptosis, DAPI nuclear morphology (assay: apoptosis induction in cultured cancer cells, late-stage follow-up, MCL1-BIM inhibitor project, imaging, DAPI fluorescence, 2B4 cells (AID 493059)). Details: not given.
In the case of `Cc1cc(NC(=O)Cc2cccs2)no1`, the outcome was “inactive”. For `O=C(/C=C/c1ccc(Cl)c([N+](=O)[O-])c1)Nc1ccc(N2CCCC2)cc1`, the outcome was “inactive”. For `Cc1ccc(C(=O)O)cc1-c1ccc(/C=C2\SC(=O)N(CC(=O)Nc3ccc4c(c3)OCO4)C2=O)o1`, the outcome was “inactive”.

Same assay, conditions: at 25 µM; hits give high values
In the case of `CC(C)n1c(SCC(=O)Nc2nncs2)nnc1-c1ccco1`, the apoptosis was 0% (inactive). `C=CCN=c1scc(-c2ccco2)n1/N=C/c1ccc(O)c(O)c1O` gave an apoptosis of 98%. For `Cc1cccc(NC(=O)CNC(=O)c2cccc(-n3cccc3)c2)c1C`, the apoptosis was 1.9% (inactive). Work on `Nc1ccc(C(=O)NN=Cc2cc(N=Nc3cccc4ccccc34)ccc2O)cc1` yielded an apoptosis of 15%. For `COC(=O)c1ccccc1NCc1cc(=O)oc2cc(O)c(O)cc12`, the apoptosis was 14% (inactive). In the case of `C=CCn1c(SCC(=O)c2ccc(O)c(O)c2)nnc1-c1cccnc1`, the apoptosis was 3.5% (inactive). For `O=C1COc2ccc(C(=O)COC(=O)/C=C/c3ccc(Br)o3)cc2N1`, the apoptosis was 3.4% (inactive). `O=C(Cn1cnc2sc(-c3ccccc3)cc2c1=O)NCc1ccco1` was tested, and the apoptosis was 3.6% (inactive). For `Cc1c(Cl)cccc1NS(=O)(=O)c1ccc2c(c1)C1C=CCC1C(c1ccc(C(=O)O)cc1)N2` (stereo not drawn), the apoptosis was 0% (inactive). In the case of `c1ccc(CSc2nnc(-c3ccco3)c(-c3ccco3)n2)cc1`, the apoptosis was 14% (inactive). `O=C(O)COc1ccccc1C(Nc1ccccn1)c1cc(Cl)c2cccnc2c1O` (stereo not drawn) was tested, and the apoptosis was 5.1% (inactive). With `CCOc1ccc(NC(=O)c2cccc(-n3cccc3)c2)cc1S(=O)(=O)N1CCOCC1` the apoptosis was 6.1% (inactive). `COc1ccc(Cc2nnc(NC(=O)Cc3cccs3)s2)cc1OC` was tested, and the apoptosis was 0% (inactive). With `COc1ccc(-n2cccc2/C=C2\C(=N)N3N=C(c4ccco4)SC3=NC2=O)cc1` the apoptosis was 3.7% (inactive). `CCc1sc(C(C2C(=O)CC(C)(C)CC2=O)C2C(=O)CC(C)(C)CC2=O)cc1[N+](=O)[O-]` was tested, and the apoptosis was 3.5% (inactive). `O=[N+]([O-])c1cc(CN2CCCC2)c2cccnc2c1O` was tested, and the apoptosis was 1.7% (inactive). For `COc1ccc(NC(=O)CN(C)C(=O)c2cc3c(s2)CCC3)cc1`, the apoptosis was 1.8% (inactive). For `O=C(NN=Cc1ccc(-c2ccc(S(=O)(=O)Nc3ncccn3)cc2)o1)c1cc2ccccc2cc1O`, the apoptosis was 18%. With `c1coc(-c2nc(-c3ccco3)c(-c3ccco3)nc2-c2ccco2)c1` the apoptosis was 0% (inactive). For `O=C(NN=Cc1cccc(F)c1)c1cc(-c2ccco2)nc2ccccc12`, the apoptosis was 3% (inactive).
